Measured values reported in patent US11965041B2, “N-methylated cyclic peptides and their prodrugs” (TECHNISCHE UNIVERSITAET MUENCHEN, priority 2017, dated 2024).
Entries after “also recorded” stand apart in the source; their conditions may differ. Where two headings read alike, the source gives them in different places. Numbered stars: 1 amine (or outer) side, 2 acyl side, 3 side chain; on linkers, the order of the positions; unused ones are H or OH. Square brackets hold non-standard residues; d marks the D form. Peptide text beside a SMILES is read from it. X3 = CCCCCCOC(=O)N=C(NCCC[C@H](C(=O)[*:2])N(C)[*:1])NC(=O)OCCCCCC; X1 = CCCCCCOC(=O)N=C(NCCC[C@@H](N[*:1])C(=O)[*:2])NC(=O)OCCCCCC; X2 = CCCCCCOC(=O)N=C(N)NCCC[C@H](N[*:1])C(=O)[*:2]; dNMeV = CN[C@@H](C(=O)O)C(C)C; NMeA = CN[C@@H](C)C(=O)O

What was measured:
[1] = Caco-2 permeability study (Examples 1, 2 and 4, Table 3); assay type: in vitro ADME, human; conditions: for Papp A→B at 150 min, 10 μg/ml / Papp B→A at 150 min, 10 μg/ml: human; for efflux ratio: Table 3
Experimental: The culture growth medium consisted of DMEM supplemented with 10% heat-inactivated FBS, 1% MEM-NEAA, 2 mM 1-glutamine, 1 mM sodium pyruvate, 50,000 units Penicillin G Sodium and 50 mg Streptomycin Sulfate (Biological Industries). The medium was replaced every other day.
Cells (passage 55-60) were seeded at density of 25×10^5 cells/cm^2 on untreated culture inserts of polycarbonate membrane with 0.4 μm pores and surface area of 1.1 cm^2. Culture inserts containing Caco-2 monolayer were placed in 12 mm transwell plates (Corning). Culture medium was replaced every other day. Transepithelial Electrical Resistance (TEER) values were measured by Millicell ERS-2 System (Millipore) a week after seeding up to experiment day (21-23 days) to ensure proliferation and differentiation of the cells. When the cells were fully differentiated and TEER values became stable (200-500 Ω·cm^2). The TEER values were compared to control inserts containing only the medium.
The experiment was initiated by replacing the medium from both sides by apical (600 μl) and basolateral (1500 μl) buffers, both warmed to 37° C. The Cells were incubated with the buffers solutions for 30 min at 37° C. on a shaker (100 cycles/min). The apical buffer was replaced by apical buffer containing 10 μg/ml of the cyclic peptides of the invention. 50 μl samples were taken from the apical side immediately at the beginning of the experiment, resulting in 550 μl apical volume during the experiment.
Permeability Coefficient (Papp) for each compound was calculated from the linear plot of drug accumulated versus time, using the following equation:
Where dq/dt is steady state appearance rate of the compound on the receiver side, Co is the initial concentration of the drug on the donor side, and A is the exposed tissue surface area (1.1 cm^2).
Transport studies were performed through the Caco-2 monolayer mounted in an Ussing-type chamber set-up with continuous trans-epithelial electrical resistance (TEER) measurements to assure TEER between 800 and 1200 Sr cm^2. HBSS supplemented with 10 mM MES and adjusted to pH 6.5 were used as transport medium in the donor compartment and pH 7.4 in the acceptor compartment. The donor solution contained the test compound.
Permeability mechanism of compounds is studied by evaluating the Papp of a compound from the apical to the basolateral (A-to-B) membrane and its Papp from the basolateral to the apical membrane (B-to-A). The A-to-B assay simulates passive and transporter-mediated permeability. The B-to-A assay is essential complementary experiment indicative of the activity of P-gp. The ratio of the A-to-B and B-to A Papps (efflux ratio) is calculated to determine the permeability mechanism.

[2] = pH 7.4, LogD
[3] = for Papp A→B: Caco-2, Papp (AB); for Papp B→A: Caco-2, Papp (BA)
in vitro = conditions: human, Caco-2, pH 7.4
human αvβ3-integrin = biological target: T1, human αvβ3-integrin (Homo sapiens, UniProt P05106+P06756); assay: Solid-phase integrin binding assay, αvβ3
T1 construct: purchased R&D
T1 sequence (P06756 31-992 limits assumed): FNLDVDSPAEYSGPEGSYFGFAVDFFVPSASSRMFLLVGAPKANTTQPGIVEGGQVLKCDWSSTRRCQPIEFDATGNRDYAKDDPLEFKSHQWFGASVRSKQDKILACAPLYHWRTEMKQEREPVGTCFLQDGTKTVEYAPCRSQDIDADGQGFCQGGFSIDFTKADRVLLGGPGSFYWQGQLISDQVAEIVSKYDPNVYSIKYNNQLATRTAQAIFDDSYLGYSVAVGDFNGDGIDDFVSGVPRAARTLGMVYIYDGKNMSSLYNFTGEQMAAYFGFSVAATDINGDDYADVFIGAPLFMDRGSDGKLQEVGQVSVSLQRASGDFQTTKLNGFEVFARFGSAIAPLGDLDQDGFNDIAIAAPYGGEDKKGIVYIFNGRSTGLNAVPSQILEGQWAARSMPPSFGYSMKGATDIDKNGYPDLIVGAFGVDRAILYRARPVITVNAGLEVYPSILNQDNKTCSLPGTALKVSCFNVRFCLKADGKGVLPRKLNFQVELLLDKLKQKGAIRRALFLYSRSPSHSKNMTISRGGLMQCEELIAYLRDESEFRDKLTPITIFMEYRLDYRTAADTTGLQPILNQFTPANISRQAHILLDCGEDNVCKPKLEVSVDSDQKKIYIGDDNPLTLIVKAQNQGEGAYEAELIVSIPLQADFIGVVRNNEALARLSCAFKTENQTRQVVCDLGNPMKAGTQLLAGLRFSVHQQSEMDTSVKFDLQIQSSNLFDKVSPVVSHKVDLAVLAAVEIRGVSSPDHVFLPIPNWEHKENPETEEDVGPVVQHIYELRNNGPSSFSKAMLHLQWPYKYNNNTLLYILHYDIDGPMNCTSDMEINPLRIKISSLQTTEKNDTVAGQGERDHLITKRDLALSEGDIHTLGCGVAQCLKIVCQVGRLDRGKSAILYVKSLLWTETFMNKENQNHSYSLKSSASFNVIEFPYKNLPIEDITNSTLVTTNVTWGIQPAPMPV
T1 sequence (P05106 27-718 limits assumed): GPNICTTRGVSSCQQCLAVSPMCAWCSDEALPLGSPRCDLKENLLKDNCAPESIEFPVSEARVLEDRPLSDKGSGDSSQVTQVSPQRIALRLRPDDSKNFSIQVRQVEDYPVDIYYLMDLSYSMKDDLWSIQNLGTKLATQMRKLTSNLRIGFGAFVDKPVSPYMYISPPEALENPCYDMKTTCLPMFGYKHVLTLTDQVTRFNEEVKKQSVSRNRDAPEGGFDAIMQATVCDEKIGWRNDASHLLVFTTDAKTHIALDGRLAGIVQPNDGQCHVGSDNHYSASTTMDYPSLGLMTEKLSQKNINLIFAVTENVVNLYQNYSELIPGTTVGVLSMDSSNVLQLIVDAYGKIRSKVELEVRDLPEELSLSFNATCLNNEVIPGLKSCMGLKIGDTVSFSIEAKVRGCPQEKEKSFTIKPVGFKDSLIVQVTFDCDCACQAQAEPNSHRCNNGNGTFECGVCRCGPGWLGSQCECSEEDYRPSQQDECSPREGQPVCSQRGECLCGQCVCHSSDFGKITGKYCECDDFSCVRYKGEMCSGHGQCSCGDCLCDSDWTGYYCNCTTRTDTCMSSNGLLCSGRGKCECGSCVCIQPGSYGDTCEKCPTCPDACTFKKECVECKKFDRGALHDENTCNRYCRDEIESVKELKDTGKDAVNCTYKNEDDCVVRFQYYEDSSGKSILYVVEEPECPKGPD

[4] = Log D, octanol/PBS distribution coefficient; conditions: for logD at 1 h: pH 7.4, LogD
[5] = Caco-2 bidirectional permeability with or without verapamil (Example 6); conditions: human, 90 min, without verapamil; for Papp A→B at 90 min, 10 μM: Caco-2, pH 7.4, Papp (AB); for Papp B→A at 90 min, 10 μM: Caco-2, pH 7.4, Papp (BA)
Caco-2 cells = assay: as above
[6] = Metabolic stability in rat plasma; assay type: in vitro ADME; conditions: 37° C., up to 90 minutes
Experimental: The enzymatic reactions were performed as follows: 2 mM stock solutions of the tested compounds were diluted with serum or purified brush border membrane vesicles (BBMVs) solution to a final concentration of 0.5 mM. During incubation at 37° C. samples were taken for a period of 90 minutes. The enzymatic reaction was stopped by adding 1:1 v/v of ice cold acetonitrile and centrifuge (4000 g, 10 min) before analysis. Preparation of BBMVs: The BBMVs was prepared from combined duodenum, jejunum, and upper ileum (male Wistar rats) by a Ca^++ precipitation method. Purification of the BBMVs was assayed using GGT, LAP and alkaline phosphatase as membrane enzyme markers
Peptides 12 and 12p were subjected to rat plasma and followed their degradation. Rat plasma is known to be rich with esterases.

[7] = Pharmacokinetic study in rats after oral administration; assay type: in vivo, Wistar rats; conditions: rat, oral 5 mg/kg; peptide 12 measured in plasma; 12P given as dispersed 12P SNEDDS
Experimental: In Vivo Studies. Male Wistar rats (Harlan, Israel), 275-300 g in weight, were used for all surgical procedures. Animals were anesthetized for the period of surgery by intraperitoneal injection of 1 mL/kg of ketamine/xylazine solution (9:1), placed on a heated surface, and maintained at 37° C. (Harvard Apparatus Inc., Holliston, MA). An indwelling cannula was placed in the right jugular vein of each animal for systemic blood sampling, by a method described before. The cannula was tunneled beneath the skin and exteriorized at the dorsal part of the neck. After completion of the surgical procedure, the animals were transferred to cages to recover overnight (12-18 h). During this recovery period, food but not water was deprived. Throughout the experiment, free access to food was available 4 h post oral administration. Animals were randomly assigned to the different experimental groups. […] Dispersed 12P SNEDDS (5 mg/kg) was administered to the animals by oral gavage (n=3). Systemic blood samples (0.35 mL) were taken at 5 min predose, 20, 40, 60, 90, 180, 240, and 360 min postdose. To prevent dehydration, equal volumes of physiological solution were administered to the rats following each withdrawal of blood sample. Plasma was separated by centrifugation (5322 g, 10 min) and stored at −20° C. pending analysis. In the 12P pharmacokinetic study, the parent peptide, 12, was analytically determined.
Pharmacokinetic Analysis. The area under the plasma concentration-time curve (AUC) was calculated by using the trapezoidal rule with extrapolation to infinity by dividing the last measured concentration by the elimination rate constant (kel). The elimination rate constant values were determined by a linear regression analysis using the last points on the logarithmic plot of the plasma concentration versus the time curve. Pharmacokinetic parameters, such Tmax, Cmax, clearance (CL), volume of distribution (V), and bioavailability, were calculated using noncompartmental analysis.
Analytical Methods. Plasma or BBMV samples were spiked with metoprolol (1.5 μg/mL) as an internal standard. ACN was added to each sample (2:1) and vortex-mixed for 1 min. The samples were then centrifuged (14 635 g, 10 min), and the supernatant was transferred to fresh glass tubes and evaporated to dryness (Vacuum Evaporation System, Labconco, Kansas City, MO, USA). Then, the glass tubes were reconstituted in 80 μL of mobile phase and centrifuged a second time (14 635 g, 10 min). The amount of the compounds was determined using an HPLC-MS Waters 2695 Separation Module, equipped with a Micromass ZQ detector. The resulting solution was injected (10 μL) into the HPLC system. The system was conditioned as follows: for parent drug peptides (including 12), a Kinetex 2.6 μm HILIC 100 Å, 100 mm×2.1 mm column (Phenomenex, Torrance, CA, USA), an isocratic mobile phase, and an acetonitrile:water:ammonium acetate buffer 50 mM (70:10:20, v/v/v) was used; and for the prodrug peptides (including 12P), a Luna (Phenomenex) 3 μm C8 100 Å, 100 mm×2.0 mm column and an isocratic mobile phase of ACN:water supplemented with 0.1% formic acid (70:30, v/v) and a flow rate of 0.2 mL/min at 25° C. was used. The limit of quantification for all of the peptides and prodrugs was 25 ng/mL.
The pharmacokinetic in-vivo study allows a further evaluation of the prodrug concept in the whole animal. The PK studies were performed in conscious Wistar male rats. An indwelling cannula was implanted in the jugular vein 24 hours before the PK experiment to allow full recovery of the animals from the surgical procedure. Animals (n=4) received either an IV bolus dose or oral dose of the investigated compound. Blood samples (with heparin, 15 U/ml) were collected at several time points for up to 6 hours post administration and was assayed by HPLC-MS method. Non-compartmental pharmacokinetic analysis was performed using WinNonlin software.

[8] = Caco-2, Table 3, n = 3, read-out: Papp AB
[9] = pH 7.4, reported value (mean or bound)
[10] = Caco-2, Table 3, n = 3, read-out: Papp BA

## C[C@@H]1NC(=O)[C@H](C)N(C)C(=O)[C@H](C)NC(=O)[C@H](CC(=O)O)NC(=O)CNC(=O)[C@@H](CCCNC(=N)N)N(C)C1=O [Peptide 5, c(*rGDA*AA)]
[1]; Caco-2, running text, unit inferred, read-out: Caco-2 A-to-B Papp
  Papp A→B at 150 min, 10 μg/ml: 0.3 ×10⁻⁶ cm/s
[1]; Caco-2, Table 3, n = 3
  Papp B→A at 150 min, 10 μg/ml: 0.42 ± 0.11 ×10⁻⁶ cm/s
[1]; [8]
  Papp A→B at 150 min, 10 μg/ml: 0.38 ± 0.01 ×10⁻⁶ cm/s

## CCCCCCOC(=O)N=C(NCCC[C@@H]1NC(=O)[C@H](C(C)C)N(C)C(=O)[C@@H](Cc2ccccc2)NC(=O)[C@H](CC(=O)OC)NC(=O)CNC1=O)NC(=O)OCCCCCC [Cil.-P, c(f*VR(Hoc)2GD)]
[2]; [9]
  logD: 3.95
[2]; pH 7.4, single determinations
  logD: 3.76
[3]; Mean
  Papp A→B: 0.3 ×10⁻⁶ cm/s
  Papp B→A: 0.3 ×10⁻⁶ cm/s
[3]; replicate 1
  Papp A→B: 0.6 ×10⁻⁶ cm/s
  Papp B→A: 0.4 ×10⁻⁶ cm/s
[3]; replicate 2
  Papp A→B: 0.2 ×10⁻⁶ cm/s
  Papp B→A: 0.3 ×10⁻⁶ cm/s
[3]; replicate 3
  Papp A→B: 0.2 ×10⁻⁶ cm/s
  Papp B→A: 0.3 ×10⁻⁶ cm/s
PAMPA, pH 7.4
  Permeability, replicate 1: Outlier −8.1 Log10[10^−6 cm/s]
In vitro
  efflux ratio at 90 min, 10 µM: 1.1

## C[C@@H]1NC(=O)[C@H](CC(=O)O)NC(=O)CNC(=O)[C@@H](CCCNC(=N)N)NC(=O)[C@H](C)N(C)C(=O)[C@H](C)N(C)C1=O [Peptide 23, c(rGDA*A*A)]
[1]; Caco-2, Table 3, n = 3
  Papp B→A at 150 min, 10 μg/ml: 1.34 ± 0.03 ×10⁻⁶ cm/s
[1]; [8]
  Papp A→B at 150 min, 10 μg/ml: 0.61 ± 0.09 ×10⁻⁶ cm/s

## CCCCCCOC(=O)N=C(NCCC[C@@H]1C(=O)NCC(=O)N[C@@H](CC(=O)OC)C(=O)N[C@@H](C)C(=O)N(C)[C@@H](C)C(=O)N[C@@H](C)C(=O)N1C)NC(=O)OCCCCCC [Peptide 5P, c(*r(Hoc)2GD(OMe)A*AA)] (cyclo(A[NMeA]A[X3]GD(OMe)))
[1]; [10]
  Papp B→A: 22.1 ± 3.58 ×10⁻⁶ cm/s
[1]; Caco-2, running text, unit inferred, read-out: Caco-2 B-to-A Papp
  Papp B→A: 21.2 ×10⁻⁶ cm/s
[1]; Caco-2, unit inferred, read-out: Caco-2 A-to-B Papp (converted)
  Papp A→B: 0.6 ×10⁻⁶ cm/s
[1]; Caco-2
  efflux ratio: 36.7

## CC(C)[C@@H]1C(=O)N[C@@H](CCCNC(=N)N)C(=O)NCC(=O)N[C@@H](CC(=O)O)C(=O)N[C@@H](C)C(=O)N(C)[C@@H](C)C(=O)N1C [Peptide 29, c(*vRGDA*A)]
Human αvβ3-integrin
  affinity for αvβ3, in words: subnanomolar affinity; also recorded: subnanomolar IC50
[1]; Caco-2, Table 3, n = 3
  Papp B→A at 150 min, 10 μg/ml: 0.15 ± 0.01 ×10⁻⁶ cm/s
[1]; [8]
  Papp A→B at 150 min, 10 μg/ml: 0.07 ± 0.01 ×10⁻⁶ cm/s
[4]; octanol/PBS pH 7.4
  LogD, pH 7.4, reported value (mean or bound): <−1
[4]; pH 7.4, reported value (mean or bound), octanol/PBS pH 7.4
  logD at 1 h: < -1
[4]; pH 7.4, single determinations, octanol/PBS pH 7.4, triplicate values
  logD at 1 h: -1.75
[5]; Mean, 10 μM
  Papp A→B at 90 min, 10 μM: 0.7 ×10⁻⁶ cm/s
  Papp B→A at 90 min, 10 μM: 0.3 ×10⁻⁶ cm/s
[5]; replicate 1, 10 μM
  Papp A→B at 90 min, 10 μM: 1 ×10⁻⁶ cm/s
  Papp B→A at 90 min, 10 μM: 0.3 ×10⁻⁶ cm/s
[5]; replicate 2, 10 μM
  Papp A→B at 90 min, 10 μM: 0.2 ×10⁻⁶ cm/s
  Papp B→A at 90 min, 10 μM: 0.4 ×10⁻⁶ cm/s
[5]; replicate 3, 10 μM
  Papp A→B at 90 min, 10 μM: 0.9 ×10⁻⁶ cm/s
  Papp B→A at 90 min, 10 μM: 0.2 ×10⁻⁶ cm/s
Caco-2 cells; verapamil 100 μM
  Net efflux (Papp (BA) / Papp (AB)), in the presence of Verapamil: 0.1
Caco-2 cells; without verapamil
  Net efflux (Papp (BA) / Papp (AB)): 0.4

## C[C@@H]1NC(=O)[C@H](CC(=O)O)NC(=O)CNC(=O)[C@H](CCCNC(=N)N)NC(=O)[C@@H](C)N(C)C(=O)[C@H](C)N(C)C1=O [Peptide 12, c(*aRGDA*A)]
[1]; Caco-2, Table 3, n = 3
  Papp B→A at 150 min, 10 μg/ml: 0.12 ± 0.01 ×10⁻⁶ cm/s
[1]; [8]
  Papp A→B at 150 min, 10 μg/ml: 0.04 ± 0.02 ×10⁻⁶ cm/s
[6]
  metabolic stability in rat plasma, in words: remained stable
[7]
  Kel: 0.04 ± 0.005 min⁻¹

## CCCCCCOC(=O)N=C(NCCC[C@H]1NC(=O)[C@H](C)N(C)C(=O)[C@H](C)N(C)C(=O)[C@H](C)NC(=O)[C@H](CC(=O)OC)NC(=O)CNC1=O)NC(=O)OCCCCCC [Peptide 23P, c(r(Hoc)2GD(OMe)A*A*A)] (cyclo(A[NMeA][NMeA][X1]GD(OMe)))
[1]; [8]
  Papp A→B: 1.77 ± 0.55 ×10⁻⁶ cm/s
[1]; [10]
  Papp B→A: 74.8 ± 20.4 ×10⁻⁶ cm/s
[1]; Caco-2
  efflux ratio: 42.2

## C[C@@H]1NC(=O)[C@H](CC(=O)O)NC(=O)CNC(=O)[C@H](CCCNC(=N)N)NC(=O)[C@@H](Cc2ccccc2)N(C)C(=O)[C@H](C)N(C)C1=O [Peptide 30, c(*fRGDA*A)]
Human αvβ3-integrin
  affinity for αvβ3, in words: subnanomolar affinity
Human αvβ3-integrin; Table 1
  IC50: 0.6 ± 0.2 nM

## CCCCCCOC(=O)N=C(N)NCCC[C@@H]1NC(=O)[C@@H](C(C)C)N(C)C(=O)[C@H](C)N(C)C(=O)[C@H](C)NC(=O)[C@H](CC(=O)OC)NC(=O)CNC1=O [#29P-Hoc] (cyclo(A[NMeA][dNMeV][X2]GD(OMe)))
[2]; [9]
  logD: 1.85
[2]; pH 7.4, single determinations
  logD: 1.91
[3]; Mean
  Papp A→B: 0.3 ×10⁻⁶ cm/s
  Papp B→A: 0.3 ×10⁻⁶ cm/s
[3]; replicate 1
  Papp A→B: 0.3 ×10⁻⁶ cm/s
  Papp B→A: 0.2 ×10⁻⁶ cm/s
[3]; replicate 2
  Papp A→B: 0.3 ×10⁻⁶ cm/s
  Papp B→A: 0.2 ×10⁻⁶ cm/s
[3]; replicate 3
  Papp A→B: 0.2 ×10⁻⁶ cm/s
  Papp B→A: 0.3 ×10⁻⁶ cm/s
other
  permeability in the PAMPA-GIT model system: low permeability
In vitro
  efflux ratio at 90 min, 10 µM: 1
